According to ChEMBL document CHEMBL4033762, “Development of Quinazoline/Pyrimidine-2,4(1H,3H)-diones as Agonists of Cannabinoid Receptor Type 2” (ACS Med Chem Lett, 2017):
pEC50: −log10 of the molar value.

Experiments:
[1] = molecular target: Cannabinoid receptor 1 (Homo sapiens, UniProt P21554); assay: Agonist activity at CB1 receptor (unknown origin) expressed in CHO cells co-expressing G-alpha16 incubated for 24 hrs by fluo-4 AM dye based whole-cell calcium mobilization assay
[2] = molecular target: T1, Cannabinoid receptor 2 (Homo sapiens, UniProt P34972); assay: Agonist activity at CB2 receptor (unknown origin) expressed in CHO cells co-expressing G-alpha16 incubated for 24 hrs by fluo-4 AM dye based whole-cell calcium mobilization assay; assay type: functional
T1 sequence (P34972 whole entry): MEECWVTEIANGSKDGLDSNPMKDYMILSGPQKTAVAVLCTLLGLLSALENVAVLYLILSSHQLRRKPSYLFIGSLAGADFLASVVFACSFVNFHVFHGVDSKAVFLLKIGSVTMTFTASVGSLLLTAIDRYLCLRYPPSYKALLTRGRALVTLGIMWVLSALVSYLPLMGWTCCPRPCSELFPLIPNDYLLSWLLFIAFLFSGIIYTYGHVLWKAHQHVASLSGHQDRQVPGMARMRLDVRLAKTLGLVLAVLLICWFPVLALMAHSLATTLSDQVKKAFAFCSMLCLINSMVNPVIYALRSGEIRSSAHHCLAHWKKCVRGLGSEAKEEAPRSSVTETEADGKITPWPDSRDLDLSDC

[3] = molecular target: T1, Cannabinoid receptor 2; assay: Agonist activity at CB2 receptor (unknown origin) expressed in CHO cells co-expressing G-alpha16 incubated for 24 hrs by fluo-4 AM dye based whole-cell calcium mobilization assay relative to CP55940; assay type: functional
[4] = Ratio of EC50 for agonist activity at CB1 receptor (unknown origin) expressed in CHO cells to EC50 for agonist activity at CB2 receptor (unknown origin) expressed in CHO cells; parameters: species or system Homo sapiens
[5] = Lipophilicity, log P of the compound incubated at 37 degC for 20 hrs by HPLC based shake flask method; assay type: physicochemical

Sequence of Cannabinoid receptor 1 (P21554 whole entry): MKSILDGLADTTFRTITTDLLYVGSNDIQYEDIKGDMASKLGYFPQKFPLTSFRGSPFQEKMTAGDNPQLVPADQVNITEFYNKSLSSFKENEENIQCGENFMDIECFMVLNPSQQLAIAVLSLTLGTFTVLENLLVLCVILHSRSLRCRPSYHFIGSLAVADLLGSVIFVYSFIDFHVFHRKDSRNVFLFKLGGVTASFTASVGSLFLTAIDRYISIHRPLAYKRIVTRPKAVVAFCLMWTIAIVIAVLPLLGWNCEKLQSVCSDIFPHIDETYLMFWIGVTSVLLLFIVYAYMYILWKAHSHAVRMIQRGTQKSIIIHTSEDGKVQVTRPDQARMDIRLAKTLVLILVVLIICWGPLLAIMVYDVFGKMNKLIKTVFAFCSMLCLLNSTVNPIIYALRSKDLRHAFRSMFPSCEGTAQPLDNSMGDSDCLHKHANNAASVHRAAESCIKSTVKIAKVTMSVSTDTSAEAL

| SMILES | pEC50 [1] | pEC50 [2] | Emax [3] | Ratio EC50 [4] | logP at 20 h [5] |
| --- | --- | --- | --- | --- | --- |
| CCCCCn1c(=O)n(CC(=O)NC(C)(C)C)c(=O)c2c(C)cccc21 | < 5.00 | 7.85 | 77% | >715 | 2.56 |
| CCCCn1c(=O)n(CC(=O)NC(C)(C)C)c(=O)c2cccc(C)c21 | < 5.00 | 7.42 | 102% | >262 |  |
| CCCCCn1c(=O)n(CC(=O)NC2CC2)c(=O)c2ccccc21 | < 5.00 | 6.13 | 58% | >13 |  |
| CCCCn1c(=O)n(CC(=O)NC(C)(C)C)c(=O)c2ccccc21 | < 5.00 | 6.95 | 101% | >89 |  |
| CCCCCn1c(=O)n(CC(=O)NC2CCCCC2)c(=O)c2c(C)cccc21 | < 5.00 | 6.40 | 56% | >25 |  |
| C=CCCn1c(=O)n(CC(=O)NC(C)(C)C)c(=O)c2cccc(C)c21 | < 5.00 | 7.00 | 90% | >100 |  |
| CCCCn1c(C)cc(=O)n(CC(=O)NC(C)(C)C)c1=O | < 5.00 | < 5.00 |  |  |  |
| Cc1cccc2c(=O)n(CC(=O)NC(C)(C)C)c(=O)n(CC3CC3)c12 | < 5.00 | 6.51 | 110% | >32 |  |
| CCCCCn1c(=O)n(CC(=O)NCCCC)c(=O)c2c(C)cccc21 | < 5.00 | 6.33 | 83% | >21 |  |
| CCCCCn1c(C)cc(=O)n(CC(=O)NC2CCCCC2)c1=O | < 5.00 | < 5.00 |  |  |  |
| CCCCCn1c(=O)n(CC(=O)NC2CCCCC2)c(=O)c2c(Cl)cccc21 | < 5.00 | < 5.00 |  |  |  |
| CCCn1c(=O)n(CC(=O)NC(C)(C)C)c(=O)c2ccccc21 | < 5.00 | 5.85 | 75% | >7 |  |
| CCCCCn1c(=O)n(CC(=O)NCC(C)C)c(=O)c2ccccc21 | < 5.00 | 6.43 | 81% | >27 |  |
| C=CCCn1c(=O)n(CC(=O)NC(C)(C)C)c(=O)c2c(C)cccc21 | < 5.00 | 7.33 | 103% | >214 |  |
| CCCCCn1c(C)cc(=O)n(CC(=O)NCCCC)c1=O | < 5.00 | < 5.00 |  |  |  |
| CCCCCn1c(C)c(-c2ccccc2)c(=O)n(CC(=O)NC(C)(C)C)c1=O | < 5.00 | < 5.00 |  |  |  |
| CCCn1c(=O)n(CC(=O)NC(C)(C)C)c(=O)c2c(C)cccc21 | < 5.00 | 6.95 | 113% | >88 |  |
| CCCCCn1c(=O)n(CC(=O)NCCCC)c(=O)c2c(OC)cccc21 | < 5.00 | < 5.00 |  |  |  |
| CCCCCn1c(=O)n(CC(=O)NC(C)(C)C)c(=O)c2cccc(OC)c21 | < 5.00 | < 5.00 |  |  |  |
| CCCCn1c(=O)n(CC(=O)NC(C)(C)C)c(=O)c2c(C)cccc21 | < 5.00 | 7.63 | 98% | >425 |  |

| SMILES | pEC50 [1] | pEC50 [2] | Emax [3] | Ratio EC50 [4] | logP at 20 h [5] |
| --- | --- | --- | --- | --- | --- |
| CCCCCn1c(C)cc(=O)n(CC(=O)NC(C)(C)C)c1=O | < 5.00 | 6.14 | 72% | >13 |  |
| O=C(NCC1CCOCC1)c1cnc(Nc2ccc(Cl)cc2Cl)nc1C(F)(F)F [GW842166X] | < 5.00 | 6.46 | 97% | >29 | 4.27 |
| Cc1cccc2c1c(=O)n(CC(=O)NC(C)(C)C)c(=O)n2CC1CC1 | < 5.00 | 7.17 | 106% | >146 |  |
| CCCCCCn1c(C)cc(=O)n(CC(=O)NC(C)(C)C)c1=O | < 5.00 | 6.12 | 65% | >13 |  |
| CCCCCn1c(=O)n(CC(=O)NCCCC)c(=O)c2ccccc21 | < 5.00 | 7.10 | 78% | >127 |  |
| CCCCCn1c(C)c(-c2cccc(C)c2)c(=O)n(CC(=O)NC(C)(C)C)c1=O | < 5.00 | < 5.00 |  |  |  |
| CCCCCn1c(=O)n(CC(=O)NC(C)(C)C)c(=O)c2cccc(C)c21 | < 5.00 | 7.56 | 99% | >361 |  |
| CCCCN1C(=O)/C(=C/NC2CCCCC2)C(=O)c2cccc(C)c21 |  |  |  |  | 4.35 |
| CCCn1c(=O)n(CC(=O)NC(C)(C)C)c(=O)c2cccc(C)c21 | < 5.00 | 6.39 | 121% | >25 |  |
| CCCCCn1c(=O)n(CC(=O)NC2CCCCC2)c(=O)c2c(OC)cccc21 | < 5.00 | < 5.00 |  |  |  |
| CCCCCn1c(=O)n(CC(=O)NC(C)(C)C)c(=O)c2c(OC)cccc21 | < 5.00 | 5.90 | 88% | >8 |  |
| CCCCCn1c(=O)n(CC(=O)NC(C)(C)C)c(=O)c2ccccc21 | < 5.00 | 7.06 | 80% | >116 |  |
| CCCCCn1c(=O)n(CC(=O)NC(C)(C)C)c(=O)c2cccc(Cl)c21 | < 5.00 | 7.28 | 118% | >190 |  |
| CCCCCn1c(C)c(C2CC2)c(=O)n(CC(=O)NC(C)(C)C)c1=O | < 5.00 | 6.57 | 71% | >37 |  |
| CCCCCn1c(=O)n(CC(=O)NC(C)C)c(=O)c2ccccc21 | < 5.00 | 6.67 | 65% | >47 |  |
| CCCCCn1c(C)c(I)c(=O)n(CC(=O)NC(C)(C)C)c1=O | < 5.00 | 6.75 | 78% | >56 |  |
| CCCCCn1c(C)c(Br)c(=O)n(CC(=O)NC(C)(C)C)c1=O | < 5.00 | 7.31 | 74% | >205 | 2.24 |
| CCCCCn1c(=O)n(CC(=O)NCCCC)c(=O)c2c(Cl)cccc21 | < 5.00 | 6.83 | 30% | >68 |  |
| CCCCCn1c(=O)n(CC(=O)NC2CCCCC2)c(=O)c2ccccc21 | < 5.00 | < 5.00 |  |  |  |
| CCCCCn1c(C)c(Cl)c(=O)n(CC(=O)NC(C)(C)C)c1=O | < 5.00 | 6.64 | 65% | >44 |  |
